What all share (assay): cell-based
The target in experiment [1] is hNav1.5 (Homo sapiens, UniProt Q14524).
For experiment [2], the target named is hNav1.7 (Homo sapiens, UniProt Q15858). The experiment is classed as cell-based.
The target of experiment [3] is hNav1.3 (Homo sapiens, UniProt Q9NY46). The note with it: IonWorks Quattro, use, […], read-out: IWQ Use Nav1.3. On the technique in general: In patch-clamp work, channel activity is measured electrically.
The mark [4] stands for this setting: Table 23, IonWorks Quattro, use, […], read-out: IWQ Use Nav1.5.

Like-named read-outs stand apart in the source and are kept apart here. Positions of bridges follow the written chain, without caps; N, C: chain ends. Residues, ends and D or L forms follow the SMILES beside them.

hNav1.7, sequence (Q15858 whole entry, looked up): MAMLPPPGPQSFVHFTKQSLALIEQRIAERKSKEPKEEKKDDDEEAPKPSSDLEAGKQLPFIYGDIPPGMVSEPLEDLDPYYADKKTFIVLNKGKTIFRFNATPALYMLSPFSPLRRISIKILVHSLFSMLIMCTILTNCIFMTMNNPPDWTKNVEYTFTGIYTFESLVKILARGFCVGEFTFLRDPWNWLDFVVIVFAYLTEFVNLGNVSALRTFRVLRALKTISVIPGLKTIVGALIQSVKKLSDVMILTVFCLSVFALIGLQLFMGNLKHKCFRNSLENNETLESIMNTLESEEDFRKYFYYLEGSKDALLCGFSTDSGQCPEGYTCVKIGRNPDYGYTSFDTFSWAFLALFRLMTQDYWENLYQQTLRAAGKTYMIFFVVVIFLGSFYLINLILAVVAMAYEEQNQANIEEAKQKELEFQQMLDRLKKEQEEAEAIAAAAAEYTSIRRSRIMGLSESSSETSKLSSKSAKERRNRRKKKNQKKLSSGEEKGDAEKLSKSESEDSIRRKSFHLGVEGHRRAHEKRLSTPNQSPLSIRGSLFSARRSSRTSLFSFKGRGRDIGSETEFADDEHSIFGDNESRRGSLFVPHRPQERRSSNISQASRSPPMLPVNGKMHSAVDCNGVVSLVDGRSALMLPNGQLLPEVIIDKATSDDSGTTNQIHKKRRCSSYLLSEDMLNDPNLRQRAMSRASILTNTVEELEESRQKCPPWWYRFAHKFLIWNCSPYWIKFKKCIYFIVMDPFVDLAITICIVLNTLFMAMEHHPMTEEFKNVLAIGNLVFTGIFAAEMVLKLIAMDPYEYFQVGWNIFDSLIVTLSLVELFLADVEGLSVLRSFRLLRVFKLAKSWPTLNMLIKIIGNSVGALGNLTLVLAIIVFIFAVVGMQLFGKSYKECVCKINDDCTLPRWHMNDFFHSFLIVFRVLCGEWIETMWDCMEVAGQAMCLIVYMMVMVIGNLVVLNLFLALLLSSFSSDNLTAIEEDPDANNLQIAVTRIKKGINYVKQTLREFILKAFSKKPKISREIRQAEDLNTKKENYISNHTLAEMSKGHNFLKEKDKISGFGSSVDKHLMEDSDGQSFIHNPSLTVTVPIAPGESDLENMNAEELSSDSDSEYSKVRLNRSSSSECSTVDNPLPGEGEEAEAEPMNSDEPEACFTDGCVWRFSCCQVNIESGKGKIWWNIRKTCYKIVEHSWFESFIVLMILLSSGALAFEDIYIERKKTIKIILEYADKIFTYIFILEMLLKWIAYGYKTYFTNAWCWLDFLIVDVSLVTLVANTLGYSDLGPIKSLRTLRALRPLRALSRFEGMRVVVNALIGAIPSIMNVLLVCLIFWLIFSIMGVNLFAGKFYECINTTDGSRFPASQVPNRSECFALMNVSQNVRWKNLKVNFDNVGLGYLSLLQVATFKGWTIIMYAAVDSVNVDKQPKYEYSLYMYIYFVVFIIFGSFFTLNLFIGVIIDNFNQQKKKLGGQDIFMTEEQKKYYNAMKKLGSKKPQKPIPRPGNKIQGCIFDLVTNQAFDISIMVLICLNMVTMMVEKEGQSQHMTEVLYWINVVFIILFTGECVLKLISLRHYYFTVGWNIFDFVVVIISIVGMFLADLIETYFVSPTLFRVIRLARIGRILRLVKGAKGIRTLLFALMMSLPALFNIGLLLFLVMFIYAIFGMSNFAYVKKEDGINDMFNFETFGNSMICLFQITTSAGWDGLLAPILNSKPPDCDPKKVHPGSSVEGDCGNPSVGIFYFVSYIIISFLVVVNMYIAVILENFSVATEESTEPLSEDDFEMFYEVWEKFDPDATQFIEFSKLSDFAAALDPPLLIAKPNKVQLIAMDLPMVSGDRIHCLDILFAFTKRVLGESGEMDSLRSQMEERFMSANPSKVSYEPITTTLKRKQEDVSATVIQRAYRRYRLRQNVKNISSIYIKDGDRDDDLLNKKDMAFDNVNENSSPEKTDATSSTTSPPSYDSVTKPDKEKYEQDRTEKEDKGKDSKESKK
hNav1.5, sequence (Q14524 whole entry, looked up): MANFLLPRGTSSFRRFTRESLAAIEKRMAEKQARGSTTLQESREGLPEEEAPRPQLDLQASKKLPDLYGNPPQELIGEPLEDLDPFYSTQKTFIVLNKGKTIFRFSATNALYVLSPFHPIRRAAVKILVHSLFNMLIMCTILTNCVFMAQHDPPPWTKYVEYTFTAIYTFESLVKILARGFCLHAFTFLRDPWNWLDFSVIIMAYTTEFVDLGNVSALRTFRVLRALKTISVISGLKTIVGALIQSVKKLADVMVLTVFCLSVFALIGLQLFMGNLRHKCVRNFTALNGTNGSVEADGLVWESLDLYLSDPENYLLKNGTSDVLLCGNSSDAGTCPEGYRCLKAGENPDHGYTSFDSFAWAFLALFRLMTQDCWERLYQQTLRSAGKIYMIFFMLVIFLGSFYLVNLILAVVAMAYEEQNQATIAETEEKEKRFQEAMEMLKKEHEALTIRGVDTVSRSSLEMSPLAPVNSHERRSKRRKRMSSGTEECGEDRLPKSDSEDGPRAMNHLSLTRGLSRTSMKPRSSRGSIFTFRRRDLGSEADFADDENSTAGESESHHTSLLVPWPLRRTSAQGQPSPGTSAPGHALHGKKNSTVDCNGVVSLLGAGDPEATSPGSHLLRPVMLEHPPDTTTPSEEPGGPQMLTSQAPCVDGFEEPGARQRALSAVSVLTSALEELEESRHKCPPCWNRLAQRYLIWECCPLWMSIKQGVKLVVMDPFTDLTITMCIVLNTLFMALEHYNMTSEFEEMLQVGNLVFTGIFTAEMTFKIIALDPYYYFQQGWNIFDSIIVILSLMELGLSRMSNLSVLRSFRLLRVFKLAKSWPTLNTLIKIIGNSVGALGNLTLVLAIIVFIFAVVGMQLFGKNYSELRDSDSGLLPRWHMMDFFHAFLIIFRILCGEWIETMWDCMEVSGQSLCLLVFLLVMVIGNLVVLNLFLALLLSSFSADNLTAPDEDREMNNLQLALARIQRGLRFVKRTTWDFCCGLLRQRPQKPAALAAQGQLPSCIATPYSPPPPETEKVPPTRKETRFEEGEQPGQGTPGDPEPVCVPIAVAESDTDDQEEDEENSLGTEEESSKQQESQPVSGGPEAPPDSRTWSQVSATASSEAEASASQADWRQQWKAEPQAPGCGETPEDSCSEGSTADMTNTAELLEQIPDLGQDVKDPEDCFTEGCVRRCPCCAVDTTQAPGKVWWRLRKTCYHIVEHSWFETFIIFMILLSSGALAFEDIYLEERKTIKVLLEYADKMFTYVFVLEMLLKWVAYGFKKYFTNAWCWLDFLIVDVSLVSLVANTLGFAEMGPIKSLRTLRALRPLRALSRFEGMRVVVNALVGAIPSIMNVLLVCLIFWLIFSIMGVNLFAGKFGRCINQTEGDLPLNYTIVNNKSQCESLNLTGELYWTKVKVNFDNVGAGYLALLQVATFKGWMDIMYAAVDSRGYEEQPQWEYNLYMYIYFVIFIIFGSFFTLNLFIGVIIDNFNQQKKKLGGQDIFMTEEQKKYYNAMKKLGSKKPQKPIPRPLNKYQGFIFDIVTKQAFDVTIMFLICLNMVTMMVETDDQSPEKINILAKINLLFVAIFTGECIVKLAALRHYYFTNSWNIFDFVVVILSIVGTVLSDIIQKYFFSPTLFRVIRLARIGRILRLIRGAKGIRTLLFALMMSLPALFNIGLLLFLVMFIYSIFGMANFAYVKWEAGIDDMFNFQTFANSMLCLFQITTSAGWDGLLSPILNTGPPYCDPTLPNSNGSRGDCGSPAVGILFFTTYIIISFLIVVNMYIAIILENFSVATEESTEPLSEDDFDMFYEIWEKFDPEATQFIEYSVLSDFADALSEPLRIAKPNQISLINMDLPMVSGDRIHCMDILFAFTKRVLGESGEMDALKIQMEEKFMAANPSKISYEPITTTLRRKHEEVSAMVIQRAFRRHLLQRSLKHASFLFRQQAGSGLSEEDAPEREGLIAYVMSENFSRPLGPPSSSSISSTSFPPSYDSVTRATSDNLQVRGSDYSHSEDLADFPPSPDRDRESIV

For the compound `CC[C@H](C)[C@@H]1NC(=O)[C@@H]2CSSC[C@@H]3NC(=O)[C@H](C(C)C)NC(=O)[C@H](CC(C)C)NC(=O)[C@H](CC(N)=O)NC(=O)[C@@H]4CCCN4C(=O)[C@H](CCCNC(=N)N)NC(=O)[C@H](CSSC[C@H](NC(=O)[C@@H](N)CC(=O)O)C(=O)N[C@@H](CC(C)C)C(=O)NCC(=O)N[C@@H](Cc4ccccc4)C(=O)N[C@@H](CCSC)C(=O)N[C@@H](CCCNC(=N)N)C(=O)N[C@@H](CCCCN)C(=O)N2)NC(=O)[C@H](CSSC[C@@H](C(=O)N[C@@H](CCCCN)C(=O)N[C@@H](Cc2ccc(O)cc2)C(=O)N[C@H](C(=O)N[C@@H](Cc2ccccc2)C(N)=O)C(C)C)NC(=O)[C@H](Cc2c[nH]c4ccccc24)NC(=O)[C@H](CCCCN)NC(=O)[C@H](Cc2cnc[nH]2)NC(=O)[C@H](C)NC(=O)[C@H](CCCNC(=N)N)NC(=O)[C@H](CO)NC3=O)NC(=O)[C@H](CCCCN)NC(=O)[C@H](CC(=O)O)NC(=O)[C@H](CC(N)=O)NC(=O)[C@H](CC(=O)O)NC(=O)[C@@H]2CCCN2C1=O` [compound 10] (H-DCLGFMRKCIPDNDKCCRPNLVCSRAHKWCKYVF-NH2; disulfide 2-17, 9-23, 16-30), the IC50 in experiment [1] (IWQ Use Nav1.5 (μM)) came to 10.5 µM; in experiment [2] (Table 22, IonWorks Quattro, use, […], read-out: IWQ Use Nav1.7), 250 nM; in experiment [3] (Table 22), 170 nM.

Consider `CC[C@H](C)[C@@H]1NC(=O)[C@@H]2CSSC[C@@H]3NC(=O)[C@H](C(C)C)NC(=O)[C@H](CC(C)C)NC(=O)[C@H](CC(N)=O)NC(=O)[C@@H]4CCCN4C(=O)[C@H](CCCNC(=N)N)NC(=O)[C@H](CSSC[C@H](NC(=O)[C@@H](N)CC(=O)O)C(=O)N[C@@H](CC(C)C)C(=O)NCC(=O)N[C@@H](Cc4ccccc4)C(=O)N[C@@H](CCSC)C(=O)N[C@@H](CCCNC(=N)N)C(=O)N[C@@H](CCCCN)C(=O)N2)NC(=O)[C@H](CSSC[C@@H](C(=O)N[C@@H](CCCCN)C(=O)N[C@@H](Cc2ccc(O)cc2)C(=O)N[C@H](C(=O)N[C@@H](Cc2ccccc2)C(N)=O)C(C)C)NC(=O)[C@H](Cc2c[nH]c4ccccc24)NC(=O)[C@H](CCCCN)NC(=O)[C@H](C)NC(=O)[C@H]([C@@H](C)O)NC(=O)[C@H](CCCNC(=N)N)NC(=O)[C@H](CO)NC3=O)NC(=O)[C@H](CCCCN)NC(=O)[C@H](CC(=O)O)NC(=O)[C@H](CC(N)=O)NC(=O)[C@H](CC(=O)O)NC(=O)[C@@H]2CCCN2C1=O` [compound 11] (H-DCLGFMRKCIPDNDKCCRPNLVCSRTAKWCKYVF-NH2; disulfide 2-17, 9-23, 16-30), for which the IC50 worked out at 14.7 µM in experiment [1] (setting [4]), 950 nM in experiment [2] and 1150 nM in experiment [3] (Table 23).

In the case of `CC[C@H](C)[C@@H]1NC(=O)[C@@H]2CSSC[C@@H]3NC(=O)[C@H](C(C)C)NC(=O)[C@H](CC(C)C)NC(=O)[C@H](CC(N)=O)NC(=O)[C@@H]4CCCN4C(=O)[C@H](CCCNC(=N)N)NC(=O)[C@H](CSSC[C@H](NC(=O)[C@@H](N)CC(=O)O)C(=O)N[C@@H](CC(C)C)C(=O)NCC(=O)N[C@@H](Cc4ccccc4)C(=O)N[C@@H](CCSC)C(=O)N[C@@H](CCCNC(=N)N)C(=O)N[C@@H](CCCCN)C(=O)N2)NC(=O)[C@H](CSSC[C@@H](C(=O)N[C@@H](CCCCN)C(=O)N[C@@H](Cc2ccc(O)cc2)C(=O)N[C@H](C(=O)N[C@@H](Cc2ccccc2)C(N)=O)C(C)C)NC(=O)[C@H](Cc2c[nH]c4ccccc24)NC(=O)[C@H](C)NC(=O)[C@H](Cc2cnc[nH]2)NC(=O)[C@H]([C@@H](C)O)NC(=O)[C@H](CCCNC(=N)N)NC(=O)[C@H](CO)NC3=O)NC(=O)[C@H](CCCCN)NC(=O)[C@H](CC(=O)O)NC(=O)[C@H](CC(N)=O)NC(=O)[C@H](CC(=O)O)NC(=O)[C@@H]2CCCN2C1=O` [compound 12] (H-DCLGFMRKCIPDNDKCCRPNLVCSRTHAWCKYVF-NH2; disulfide 2-17, 9-23, 16-30), the IC50 in experiment [1] (setting [4]) was determined as 17.3 µM; in experiment [2] it was 360 nM; in experiment [3] (Table 23) it was 660 nM.

Consider `CC[C@H](C)[C@@H]1NC(=O)[C@@H]2CSSC[C@@H]3NC(=O)[C@H](C(C)C)NC(=O)[C@H](CC(C)C)NC(=O)[C@H](CC(N)=O)NC(=O)[C@@H]4CCCN4C(=O)[C@H](CCCNC(=N)N)NC(=O)[C@H](CSSC[C@H](NC(=O)[C@@H](N)CC(=O)O)C(=O)N[C@@H](CC(C)C)C(=O)NCC(=O)N[C@@H](Cc4ccccc4)C(=O)N[C@@H](CCSC)C(=O)N[C@@H](CCCNC(=N)N)C(=O)N[C@@H](CCCCN)C(=O)N2)NC(=O)[C@H](CSSC[C@@H](C(=O)N[C@@H](C)C(=O)N[C@@H](Cc2ccc(O)cc2)C(=O)N[C@H](C(=O)N[C@@H](Cc2ccccc2)C(N)=O)C(C)C)NC(=O)[C@H](Cc2c[nH]c4ccccc24)NC(=O)[C@H](CCCCN)NC(=O)[C@H](Cc2cnc[nH]2)NC(=O)[C@H]([C@@H](C)O)NC(=O)[C@H](CCCNC(=N)N)NC(=O)[C@H](CO)NC3=O)NC(=O)[C@H](CCCCN)NC(=O)[C@H](CC(=O)O)NC(=O)[C@H](CC(N)=O)NC(=O)[C@H](CC(=O)O)NC(=O)[C@@H]2CCCN2C1=O` [compound 13] (H-DCLGFMRKCIPDNDKCCRPNLVCSRTHKWCAYVF-NH2; disulfide 2-17, 9-23, 16-30), for which the results for the IC50 in experiment [1] (IWQ Use Nav1.5 (μM)), in experiment [2] and in experiment [3] (Table 25) were 14.5 µM, 7940 nM and 7390 nM, respectively.

On to `CC[C@H](C)[C@@H]1NC(=O)[C@@H]2CSSC[C@@H]3NC(=O)[C@H](C(C)C)NC(=O)[C@H](CC(C)C)NC(=O)[C@H](CC(N)=O)NC(=O)[C@@H]4CCCN4C(=O)[C@H](CCCNC(=N)N)NC(=O)[C@H](CSSC[C@H](NC(=O)[C@@H](N)CC(=O)O)C(=O)N[C@@H](CC(C)C)C(=O)NCC(=O)N[C@@H](Cc4ccccc4)C(=O)N[C@@H](CCSC)C(=O)N[C@@H](CCCNC(=N)N)C(=O)N[C@@H](CCCCN)C(=O)N2)NC(=O)[C@H](CSSC[C@@H](C(=O)N[C@@H](CCCCN)C(=O)N[C@@H](Cc2ccc(O)cc2)C(=O)N[C@@H](C)C(=O)N[C@@H](Cc2ccccc2)C(N)=O)NC(=O)[C@H](Cc2c[nH]c4ccccc24)NC(=O)[C@H](CCCCN)NC(=O)[C@H](Cc2cnc[nH]2)NC(=O)[C@H]([C@@H](C)O)NC(=O)[C@H](CCCNC(=N)N)NC(=O)[C@H](CO)NC3=O)NC(=O)[C@H](CCCCN)NC(=O)[C@H](CC(=O)O)NC(=O)[C@H](CC(N)=O)NC(=O)[C@H](CC(=O)O)NC(=O)[C@@H]2CCCN2C1=O` [compound 15] (H-DCLGFMRKCIPDNDKCCRPNLVCSRTHKWCKYAF-NH2; disulfide 2-17, 9-23, 16-30), for which the IC50 in experiment [1] (Table 26, IonWorks Quattro, use, […], read-out: IWQ Use Nav1.5) was 18.6 µM; in experiment [2] (Table 26, IonWorks Quattro, use, […], read-out: IWQ Use Nav1.7) it was 330 nM; in experiment [3] (Table 26), 350 nM.

Values taken from patent publication US9340590B2 (priority 2011, dated 2016).
